From ChEMBL document CHEMBL1129116, “Synthesis of cephems bearing olefinic sulfoxide side chains as potential -lactamase inhibitors” (1996)
Values after ≈ are worked out from the molar mass of the structure shown.

Experiments:
Type in all cases: functional
[1] = system: Staphylococcus aureus; assay: Antibacterial activity of compound was measured against Staphylococcus aureus A9537 organism
[2] = system: Klebsiella pneumoniae; assay: Antibacterial activity of compound was measured against Klebsiella pneumoniae A9432 organism
[3] = system: Escherichia coli; assay: Antibacterial activity of compound was measured against Escherichia coli A15119 organism
[4] = system: Staphylococcus aureus; assay: Antibacterial activity of compound was measured against Staphylococcus aureus (MR) CEF1198 organism
[5] = system: Staphylococcus aureus; assay: Antibacterial activity of compound was measured against Staphylococcus aureus (MR) A20699 organism

SMILES | MIC [1] | MIC [2] | MIC [3] | MIC [4] | MIC [5]
C[S+]([O-])/C=C/C1=C(C(=O)O)N2C(=O)[C@@H](NC(=O)Cc3cccs3)[C@H]2SC1 (some centres undefined) | 0.03 µg/mL (≈ 0.0727 µM) | 0.5 µg/mL (≈ 1.21 µM) | 1 µg/mL (≈ 2.42 µM) | 4 µg/mL (≈ 9.7 µM) | 16 µg/mL (≈ 38.8 µM)
CS(=O)(=O)/C=C/C1=C(C(=O)O)N2C(=O)[C@@H](NC(=O)Cc3cccs3)[C@H]2SC1 | 0.06 µg/mL (≈ 0.14 µM) | 0.5 µg/mL (≈ 1.17 µM) | 0.5 µg/mL (≈ 1.17 µM) | 0.5 µg/mL (≈ 1.17 µM) | 4 µg/mL (≈ 9.33 µM)
COc1cccc(OC)c1C(=O)N[C@@H]1C(=O)N2[C@@H]1SC(C)(C)[C@@H]2C(=O)O [METHICILLIN] | 0.5 µg/mL (≈ 1.31 µM) | > 128 µg/mL | > 128 µg/mL | 32 µg/mL (≈ 84.1 µM) | 32 µg/mL (≈ 84.1 µM)

Second part, the molecule after the results:

MIC [1] | MIC [2] | MIC [3] | MIC [4] | MIC [5] | SMILES
0.5 µg/mL (≈ 0.962 µM) | 64 µg/mL (≈ 123 µM) | 64 µg/mL (≈ 123 µM) | – | 64 µg/mL (≈ 123 µM) | O=C(Cc1cccs1)N[C@@H]1C(=O)N2C(C(=O)O)=C(/C=C/[S+]([O-])c3ccc([N+](=O)[O-])cc3)CS[C@H]12 (some centres undefined)
0.25 µg/mL (≈ 0.512 µM) | 2 µg/mL (≈ 4.09 µM) | 4 µg/mL (≈ 8.19 µM) | 8 µg/mL (≈ 16.4 µM) | 16 µg/mL (≈ 32.7 µM) | Cc1ccc([S+]([O-])/C=C/C2=C(C(=O)O)N3C(=O)[C@@H](NC(=O)Cc4cccs4)[C@H]3SC2)cc1 (some centres undefined)
